Results taken from patent US8912213B2, “Synthesis and use of dual tyrosyl-DNA phosphodiesterase I (TDP1)- topoisomerase I (TOP1) inhibitors” (Purdue Research Foundation, priority 2012, dated 2014).
“Also recorded” adds a separate entry of the source. Read-outs that look alike come from different tables or passages of the source.

Assays:
[1] = biological target: Human recombinant Top1 (Homo sapiens (Human), UniProt P11387); experiment: Topoisomerase I-mediated DNA cleavage reactions; format: biochemical; details: for Top1 (compound-induced DNA cleavage, semiquantitative scale): series (B), relative to 1 μM camptothecin (90) or MJ-III-65 (91); for Top1 (compound-induced DNA cleavage due to Top1 inhibition): semiquantitative;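 for all read-outs here: 3′-end radiolabeled DNA substrate (about 2 nM) incubated with recombinant Top1 and compound for 20 min at 25 °C, cleavage products resolved by denaturing PAGE and phosphoimaging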
Procedure: Additionally, all indenoisoquinoline sulfonates and sulfonamides were tested for Top1 cleavage complex poisoning in a Top1-mediated DNA cleavage assay.
Topoisomerase I-Mediated DNA Cleavage Reactions. Human recombinant Top1 was purified from baculovirus as previously described. DNA cleavage reactions were prepared as previously reported with the exception of the DNA substrate. […] Unincorporated [^32P]dGTP was removed using mini Quick Spin DNA columns (Roche, Indianapolis, Ind.), and the eluate containing the 3′-end-labeled DNA substrate was collected. Approximately 2 nM radiolabeled DNA substrate was incubated with recombinant Top1 in 20 μL of reaction buffer [10 mM Tris-HCl (pH 7.5), 50 mM KCl, 5 mM MgCl2, 0.1 mM EDTA, and 15 μg/mL BSA] at 25° C. for 20 min in the presence of various concentrations of compounds. The reactions were terminated by adding SDS (0.5% final concentration) followed by the addition of two volumes of loading dye (80% formamide, 10 mM sodium hydroxide, 1 mM sodium EDTA, 0.1% xylene cyanol, and 0.1% bromphenol blue). Aliquots of each reaction mixture were subjected to 20% denaturing PAGE. Gels were dried and visualized by using a phosphoimager and ImageQuant software (Molecular Dynamics).
Topoisomerase I-Mediated DNA Cleavage Reactions. Top1 reactions were performed as recently described. […] The reactions were terminated by adding SDS (0.5% final concentration) followed by the addition of two volumes of loading dye (80% formamide, 10 mM sodium hydroxide, 1 mM sodium EDTA, 0.1% xylene cyanol, and 0.1% bromphenol blue). Reactions were subjected to 20% denaturing PAGE. Gels were dried and visualized by using a Typhoon 8600 and ImageQuant software (Molecular Dynamics).

[2] = biological target: Tdp1 (Homo sapiens (Human), UniProt Q9NUW8); experiment: Gel-based assay measuring the inhibition of recombinant Tdp1; format: biochemical;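 note: 5′-32P-labeled single-stranded DNA with 3′-phosphotyrosine incubated with 5 pM enzyme for 15 min at room temperature, inhibition seen as loss of 3′-phosphate product band by densitometry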
Procedure: Tdp1 inhibitory activity was measured by the drug's ability to inhibit the hydrolysis of the phosphodiester linkage between tyrosine and the 3′-end of the DNA substrate, and to prevent the generation of an oligonucleotide with a free 3′-phosphate (N14P). Therefore, the disappearance of the gel band for N14P indicated Tdp1 inhibition.
Gel-Based Assay Measuring the Inhibition of Recombinant Tdp1. A 5′-[^32P]-labeled single-stranded DNA oligonucleotide containing a 3′-phosphotyrosine (N14Y) was generated as described by Dexheimer et al. The DNA substrate was then incubated with 5 pM recombinant Tdp1 in the absence or presence of inhibitor for 15 min at room temperature in a buffer containing 50 mM Tris HCl, pH 7.5, 80 mM KCl, 2 mM EDTA, 1 mM DTT, 40 μg/ml BSA and 0.01% Tween-20. […] Gel images were scanned using a Typhoon 8600 (GE Healthcare) and densitometric analyses were performed using the ImageQuant software (GE Healthcare).

[3] = tested on: all human cancer cell lines successfully tested; experiment: NCI screen, mean graph midpoint (MGM) for growth inhibition; details: for GI50: Homo sapiens, read-out: MGM (μM); for MGM: series (B), mean graph midpoint GI50, ± standard error where two determinations
[4] = tested on: SN12C; experiment: NCI screen cytotoxicity, renal SN12C; format: cell-based; details: Homo sapiens, 50% growth inhibition
[5] = tested on: DU-145; experiment: NCI screen cytotoxicity, prostate DU-145; format: cell-based; details: Homo sapiens, DU-145, read-out: Cytotoxicity (GI50 in μM) prostate DU-145; 50% growth inhibition
[6] = tested on: UACC-62; experiment: NCI screen cytotoxicity, melanoma UACC-62; format: cell-based; details: Homo sapiens, 50% growth inhibition
[7] = tested on: HCT-116; experiment: NCI screen cytotoxicity, colon HCT-116; format: cell-based; details: Homo sapiens, 50% growth inhibition
[8] = tested on: OVCAR-3; experiment: NCI screen cytotoxicity, ovarian OVCAR-3; details: Homo sapiens, OVCAR-3, read-out: Cytotoxicity (GI50 in μM) ovarian OVCAR-3
[9] = tested on: MDA-MB-435; experiment: NCI screen cytotoxicity, breast MDA-MB-435; format: cell-based; details: Homo sapiens, MDA-MB-435, read-out: Cytotoxicity (GI50 in μM) breast MDA-MB-435; 50% growth inhibition
[10] = tested on: HOP-62; experiment: NCI screen cytotoxicity, lung HOP-62; format: cell-based; details: Homo sapiens, 50% growth inhibition
[11] = series (A), gel-based assay, rec. human Tdp1, read-out: IC50 (μM) recombinant Tdp1

Sequence of Human recombinant Top1 (P11387 whole entry): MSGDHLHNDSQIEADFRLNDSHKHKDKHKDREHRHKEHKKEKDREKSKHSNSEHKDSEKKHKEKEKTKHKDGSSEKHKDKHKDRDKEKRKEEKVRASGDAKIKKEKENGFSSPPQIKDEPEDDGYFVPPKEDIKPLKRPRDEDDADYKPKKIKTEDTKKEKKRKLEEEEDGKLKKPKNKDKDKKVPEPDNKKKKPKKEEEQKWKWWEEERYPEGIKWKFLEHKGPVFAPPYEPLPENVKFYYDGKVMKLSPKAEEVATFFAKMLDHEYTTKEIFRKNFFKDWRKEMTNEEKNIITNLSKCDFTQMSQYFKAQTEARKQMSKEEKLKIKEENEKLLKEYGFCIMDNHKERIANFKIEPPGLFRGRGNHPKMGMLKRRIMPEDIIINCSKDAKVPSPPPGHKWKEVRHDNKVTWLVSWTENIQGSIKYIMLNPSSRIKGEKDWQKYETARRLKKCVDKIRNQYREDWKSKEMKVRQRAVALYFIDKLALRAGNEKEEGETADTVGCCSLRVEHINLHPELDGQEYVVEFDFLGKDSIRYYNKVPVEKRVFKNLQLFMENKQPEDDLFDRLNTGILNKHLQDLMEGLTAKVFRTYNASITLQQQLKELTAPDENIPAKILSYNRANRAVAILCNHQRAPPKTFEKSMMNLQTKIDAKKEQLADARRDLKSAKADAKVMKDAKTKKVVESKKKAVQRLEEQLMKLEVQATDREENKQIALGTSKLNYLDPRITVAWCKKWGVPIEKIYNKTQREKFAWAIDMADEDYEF
Sequence of Tdp1 (Q9NUW8 whole entry): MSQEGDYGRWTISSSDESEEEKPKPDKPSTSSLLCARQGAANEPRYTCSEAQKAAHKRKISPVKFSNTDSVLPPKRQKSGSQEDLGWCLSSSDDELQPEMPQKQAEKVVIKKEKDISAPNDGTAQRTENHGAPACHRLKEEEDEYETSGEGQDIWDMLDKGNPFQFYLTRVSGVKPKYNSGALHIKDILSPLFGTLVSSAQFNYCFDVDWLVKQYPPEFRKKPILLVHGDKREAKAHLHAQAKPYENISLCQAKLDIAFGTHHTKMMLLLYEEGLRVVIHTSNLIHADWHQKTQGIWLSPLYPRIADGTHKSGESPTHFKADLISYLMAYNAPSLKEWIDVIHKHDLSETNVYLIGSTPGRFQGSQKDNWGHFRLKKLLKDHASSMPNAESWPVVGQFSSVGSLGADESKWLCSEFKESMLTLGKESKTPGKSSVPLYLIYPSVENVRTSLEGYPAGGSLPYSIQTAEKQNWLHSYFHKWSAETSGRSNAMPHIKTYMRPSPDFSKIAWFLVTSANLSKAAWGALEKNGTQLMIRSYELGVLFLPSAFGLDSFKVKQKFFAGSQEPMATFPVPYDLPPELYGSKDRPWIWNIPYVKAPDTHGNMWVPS

`COc1ccc2c(c1)-c1c(c3ccc([N+](=O)[O-])cc3c(=O)n1CCCBr)C2=O` [Compound 49 of (B), 6-(3-Bromopropyl)-5,6-dihydro-8-methoxy-3-nitro-5,11-dioxo-11H-indeno[1,2-c]isoquinoline] was tested, and the “Top1 (compound-induced DNA cleavage, semiquantitative scale)” value [1] was “+++”, the IC50 [2] was over 111 µM and the “Tdp1 inhibitory activity (in words)” value [2] was “very weak or inactive”.

For `COC(=O)C(=O)Nc1ccc2c3c(n(C)c(=O)c2c1)-c1ccccc1C3=O` [Compound 9 of (B), Methyl 2-[(6-Methyl-5,11-dioxo-6,11-dihydro-5H-indeno[1,2-c]isoquinolin-3-yl)amino]-2-oxoacetate], the “Top1 (compound-induced DNA cleavage, semiquantitative scale)” value [1] was 0, the IC50 [2] was over 111 µM and the “Tdp1 inhibitory activity (in words)” value [2] was “inactive”.

For `COC(=O)CCC(=O)Nc1ccc2c3c(n(C)c(=O)c2c1)-c1ccccc1C3=O` [Compound 11 of (B), Methyl 4-[(6-Methyl-5,11-dioxo-6,11-dihydro-5H-indeno[1,2-c]isoquinolin-3-yl)amino]-4-oxobutanoate], the “Top1 (compound-induced DNA cleavage, semiquantitative scale)” value [1] was “(+)” and the IC50 [2] was over 111 µM.

`COC(=O)CCCCC(=O)Nc1ccc2c3c(n(C)c(=O)c2c1)-c1ccccc1C3=O` [Compound 13 of (B), Methyl 6-[(6-Methyl-5,11-dioxo-6,11-dihydro-5H-indeno[1,2-c]isoquinolin-3-yl)amino]-6-oxohexanoate] was tested, and the “Top1 (compound-induced DNA cleavage, semiquantitative scale)” value [1] was 0 and the IC50 [2] was over 111 µM.

With `O=C1c2ccccc2-c2c1c1ccc([N+](=O)[O-])cc1c(=O)n2CCCO` [Compound 63 of (B)] the GI50 [3] was 0.89 ± 0.22 µM, the GI50 [4] was 0.47 µM and the GI50 [5] was 0.43 µM. For the same compound, the GI50 [6] was 0.31 µM, the GI50 [7] was 0.19 µM and the GI50 [8] was 0.87 µM. The GI50 [9] was 1.97 µM.

In the case of `COC(=O)CCCC(=O)Nc1ccc2c3c(n(C)c(=O)c2c1)-c1ccccc1C3=O` [Compound 12 of (B), Methyl 5-[(6-Methyl-5,11-dioxo-6,11-dihydro-5H-indeno[1,2-c]isoquinolin-3-yl)amino]-5-oxopentanoate], the “Top1 (compound-induced DNA cleavage, semiquantitative scale)” value [1] is reported as “+” and the IC50 [2] is reported as over 111 µM.

In the case of `Cl.NCCCn1c2c(c3ccc(NC(=O)CCCC(=O)O)cc3c1=O)C(=O)c1ccccc1-2` [Compound 35 of (B), 5-[(6-(3-Aminopropyl)-5,11-dioxo-6,11-dihydro-5H-indeno[1,2-c]isoquinolin-3-yl)amino]-5-oxopentanoic Acid Hydrochloride], the “Top1 (compound-induced DNA cleavage, semiquantitative scale)” value [1] is reported as 0 and the IC50 [2] is reported as over 111 µM.

`COc1ccc2c(c1)C(=O)c1c-2n(CCCN)c(=O)c2cc([N+](=O)[O-])ccc12` [Compound 54 of (B)] was tested, and the GI50 [10] was under 0.01 µM, the GI50 [3] was 0.02 µM and the “MGM” value ([3]; listed as 54) was 0.02 ± 0.0008 µM. It also gave a GI50 [4] of under 0.01 µM, a GI50 [6] of under 0.01 µM and a GI50 [7] of under 0.01 µM.

For `CC(C)(C)OC(=O)NCCCn1c2c(c3ccc(NCC(=O)O)cc3c1=O)C(=O)c1ccccc1-2` [Compound 42 of (B), 2-((6-(3-((tert-Butoxycarbonyl)amino)propyl)-5,11-dioxo-6,11-dihydro-5H-indeno[1,2-c]isoquinolin-3-yl)amino)acetic Acid], the “Top1 (compound-induced DNA cleavage, semiquantitative scale)” value [1] was 0, the IC50 [2] was over 111 µM and the “Tdp1 inhibitory activity (in words)” value [2] was “inactivity”.

For `CCOC(=O)CNc1ccc2c3c(n(C)c(=O)c2c1)-c1ccccc1C3=O` [Compound 38 of (B), Ethyl 2-[(6-Methyl-5,11-dioxo-6,11-dihydro-5H-indeno[1,2-c]isoquinolin-3-yl)amino]acetate], the “Top1 (compound-induced DNA cleavage, semiquantitative scale)” value [1] was 0, the IC50 [2] was over 111 µM and the “Tdp1 inhibitory activity (in words)” value ([2]; listed as 38) was “inactivity; also recorded: inactive”.

In the case of `Cn1c2c(c3ccc(NC(=O)CC(=O)O)cc3c1=O)C(=O)c1ccccc1-2` [Compound 15 of (B), 3-[(6-Methyl-5,11-dioxo-6,11-dihydro-5H-indeno[1,2-c]isoquinolin-3-yl)amino]-3-oxopropanoic Acid], the IC50 [2] is reported as over 111 µM and the “Tdp1 inhibitory activity (in words)” value [2] is reported as “inactive”.

For `COC(=O)CC(=O)Nc1ccc2c3c(n(C)c(=O)c2c1)-c1ccccc1C3=O` [Compound 10 of (B), Methyl 3-[(6-Methyl-5,11-dioxo-6,11-dihydro-5H-indeno[1,2-c]isoquinolin-3-yl)amino]-3-oxopropanoate], the “Top1 (compound-induced DNA cleavage, semiquantitative scale)” value [1] was 0 and the IC50 [2] was over 111 µM.

In the case of `Cl.NCCCCCCCCCCCCn1c2c(c3ccccc3c1=O)C(=O)c1ccccc1-2` [Compound 79 of (A)], the “Top1 (compound-induced DNA cleavage due to Top1 inhibition)” value ([1]; relative to 1 μM camptothecin) is reported as 0/+ and the IC50 [2, 11] is reported as 15 µM.

`COc1ccc2c(c1)-c1c(c3ccc([N+](=O)[O-])cc3c(=O)n1CCCN1CCOCC1)C2=O` [Compound 53 of (B), 8-Methoxy-6-(3-morpholinopropyl)-3-nitro-5H-indeno[1,2-c]isoquinoline-5,11(6H)-dione] was tested, and the “Top1 (compound-induced DNA cleavage, semiquantitative scale)” value [1] was “++”, the IC50 [2] was over 111 µM and the “Tdp1 inhibitory activity (in words)” value [2] was “very weak or inactive”.

With `COc1ccc2c(c1)-c1c(c3ccc([N+](=O)[O-])cc3c(=O)n1CCCN=[N+]=[N-])C2=O` [Compound 50 of (B), 6-(3-Azidopropyl)-5,6-dihydro-8-methoxy-3-nitro-5,11-dioxo-11H-indeno[1,2-c]isoquinoline] the “Top1 (compound-induced DNA cleavage, semiquantitative scale)” value [1] was “+”, the IC50 [2] was over 111 µM and the “Tdp1 inhibitory activity (in words)” value [2] was “very weak or inactive”.

`COc1ccc2c(c1)-c1c(c3ccc([N+](=O)[O-])cc3c(=O)n1CCCn1ccnc1)C2=O` [Compound 52 of (B), 6-(3-(1H-Imidazol-1-yl)propyl)-8-methoxy-3-nitro-5H-indeno[1,2-c]isoquinoline-5,11(6H)-dione] was tested, and the GI50 [10] was under 0.01 µM, the GI50 [3] was 0.02 µM and the “MGM” value ([3]; listed as 52) was 0.02 ± 0.0006 µM. It also gave a GI50 [4] of under 0.01 µM, a GI50 [5] of under 0.01 µM and a GI50 [6] of under 0.01 µM. The GI50 [7] was under 0.01 µM, the GI50 [8] was 0.03 µM and the “suppression of DNA cleavage at high drug concentration” value ([1]; 100 μM) was “slight suppression”. The “Top1 (compound-induced DNA cleavage, semiquantitative scale)” value [1] was “+++”, the GI50 [9] was 0.03 µM and the “Tdp1 (IC50, semiquantitative scale)” value [2] was “(+)”. For the same compound, the “Tdp1 inhibitory activity (in words)” value [2] was “very weak or inactive”.

`NCCCn1c2c(c3ccccc3c1=O)C(=O)c1ccccc1-2` [Compound 1 of (B)] gave an IC50 [2] of 12 to 37 µM.

With `Cl.NCCCn1c2c(c3ccc(NC(=O)C(=O)O)cc3c1=O)C(=O)c1ccccc1-2` [Compound 32 of (B), 2-[(6-(3-Aminopropyl)-5,11-dioxo-6,11-dihydro-5H-indeno[1,2-c]isoquinolin-3-yl)amino]-2-oxoacetic Acid Hydrochloride] the “Top1 (compound-induced DNA cleavage, semiquantitative scale)” value [1] was “+” and the IC50 [2] was over 111 µM.

In the case of `Cl.NCCCCCCCCCCCn1c2c(c3ccccc3c1=O)C(=O)c1ccccc1-2` [Compound 78 of (A)], the “Top1 (compound-induced DNA cleavage due to Top1 inhibition)” value ([1]; relative to 1 μM camptothecin) is reported as “+ (between 20 and 50%, activity)” and the IC50 [2, 11] is reported as 13 µM.

`COC(=O)CCC(=O)Nc1ccc2c3c(n(CCCN)c(=O)c2c1)-c1ccccc1C3=O` [Compound 24 of (B), Methyl 4-[(6-(3-Aminopropyl)-5,11-dioxo-6,11-dihydro-5H-indeno[1,2-c]isoquinolin-3-yl)amino]-4-oxobutanoate] was tested, and the “Top1 (compound-induced DNA cleavage, semiquantitative scale)” value [1] was “(+)” and the IC50 [2] was 37 to 111 µM.

In the case of `Cl.NCCCn1c2c(c3ccc(NC(=O)CCCCC(=O)O)cc3c1=O)C(=O)c1ccccc1-2` [Compound 36 of (B), 6-[(6-(3-Aminopropyl)-5,11-dioxo-6,11-dihydro-5H-indeno[1,2-c]isoquinolin-3-yl)amino]-6-oxohexanoic Acid Hydrochloride], the “Top1 (compound-induced DNA cleavage, semiquantitative scale)” value [1] is reported as “+” and the IC50 [2] is reported as over 111 µM.

For `Cl.NCCCn1c2c(c3ccc(NC(=O)CC(=O)O)cc3c1=O)C(=O)c1ccccc1-2` [Compound 33 of (B), 3-[(6-(3-Aminopropyl)-5,11-dioxo-6,11-dihydro-5H-indeno[1,2-c]isoquinolin-3-yl)amino]-3-oxopropanoic Acid Hydrochloride], the “Top1 (compound-induced DNA cleavage, semiquantitative scale)” value [1] was “+” and the IC50 [2] was over 111 µM.

`Cn1c2c(c3ccc(NCC(=O)O)cc3c1=O)C(=O)c1ccccc1-2` [Compound 41 of (B), 2-[(6-Methyl-5,11-dioxo-6,11-dihydro-5H-indeno[1,2-c]isoquinolin-3-yl)-amino]acetic Acid] was tested, and the “Top1 (compound-induced DNA cleavage, semiquantitative scale)” value [1] was 0, the IC50 [2] was over 111 µM and the “Tdp1 inhibitory activity (in words)” value ([2]; listed as 41) was “inactivity; also recorded: inactive”.

For `Cl.NCCCCn1c2c(c3ccccc3c1=O)C(=O)c1ccccc1-2` [Compound 71 of (A)], the “Top1 inhibition (semiquantitative scale)” value ([1]; series (A), relative to 1 μM camptothecin) was “+++ (between 75% and 95% activity)”.

With `Cl.NCCCn1c2c(c3ccc(NC(=O)CCC(=O)O)cc3c1=O)C(=O)c1ccccc1-2` [Compound 34 of (B), 4-[(6-(3-Aminopropyl)-5,11-dioxo-6,11-dihydro-5H-indeno[1,2-c]isoquinolin-3-yl)amino]-4-oxobutanoic Acid Hydrochloride] the “Top1 (compound-induced DNA cleavage, semiquantitative scale)” value [1] was “+” and the IC50 [2] was over 111 µM.
